Laboratory results from patent US6228842A, “Pacidamycins produced by Streptomyces coeruleorubidus” (Microcide Pharmaceuticals, Inc., priority 1998, dated 2001).

How the values were obtained:
Experiment in all cases: In vitro antibacterial MIC, broth microdilution
P. aeruginosa 799/61 = assay type: cell-based, Pseudomonas aeruginosa; details: P. aeruginosa 799/61 (sensitive strain); Mueller Hinton broth, 20 h at 35° C.
Procedure: (§1) The compounds of the invention were evaluated against various bacterial strains by determining the minimum inhibitory concentration (MIC) of each compound with respect to each strain. The MIC is defined as the lowest concentration of drug which prevents the growth of the bacteria. A variety of different Gram-negative and Gram-positive bacterial species and strains can be selected for assay purposes depending on the particular desired application. The susceptibility assay is performed in Mueller Hinton broth using a microdilution technique in a final test volume of 100 μl using 96-well microtiter plates. Test compounds are prepared in Mueller-Hinton broth at a concentration equivalent to 2-fold the desired final concentration. The bacterial inoculi are prepared as follow. Bacterial strains are grown overnight at 35° C. on Tryptic Soy agar (TSA). For each strain, one isolated colony is used to inoculate a volume of 8 ml of Mueller Hinton broth and these cultures are incubated overnight (20 h) at 35° C. in a shaking incubator. Culture are then diluted 1:10 and allow to grow for an additional one hour at 35° C. in a shaking incubator. The inoculum used for the susceptibility assay is prepared by diluting the early log-phase (1 h) culture 1:2000 with fresh Mueller Hinton broth. A 50 μl volume of the inoculi, and a 50 μl solution of the test compound prepared as described above is added to each well. This procedure results in an inoculum of approximately 5×10^5 CFU/ml. After incubation for 20 h at 35° C., the absorbance of the cultures in each is read, e.g., using the ThermoMax microtiter plate reader (Molecular Devices) at 650 nm. The MIC is defined as the lowest concentration of compounds which prevents growth of the microorganism and therefore results in a final absorbance equal to that of the drug-free (e.g., test compound free) control.

P. aeruginosa ATCC 27853 = assay type: cell-based, Pseudomonas aeruginosa; details: Mueller Hinton broth, 20 h at 35° C.
Procedure: as §1

P. aeruginosa UPA res. = assay type: cell-based, Pseudomonas aeruginosa; details: Mueller Hinton broth, 20 h at 35° C.
Procedure: as §1

E. coli ATCC 25922 = assay type: cell-based; details: Mueller Hinton broth, 20 h at 35° C.
Procedure: as §1

E. faecalis ATCC 29212 = assay type: cell-based; details: Mueller Hinton broth, 20 h at 35° C.
Procedure: as §1

S. aureus ATCC 29213 = assay type: cell-based; details: Mueller Hinton broth, 20 h at 35° C.
Procedure: as §1

[1] = test system: S. epidermidis ATCC 31432; assay type: cell-based; details: Mueller Hinton broth, 20 h at 35° C.
Procedure: as §1

[2] = test system: X. maltophilia ATCC 13637; assay type: cell-based; details: Mueller Hinton broth, 20 h at 35° C.
Procedure: as §1

Compound | Minimal Inhibitory Concentration, MIC (P. aeruginosa 799/61) | Minimal Inhibitory Concentration, MIC (P. aeruginosa ATCC 27853) | Minimal Inhibitory Concentration, MIC (P. aeruginosa UPA res.) | Minimal Inhibitory Concentration, MIC (E. coli ATCC 25922) | Minimal Inhibitory Concentration, MIC (E. faecalis ATCC 29212) | Minimal Inhibitory Concentration, MIC (S. aureus ATCC 29213) | Minimal Inhibitory Concentration, MIC [1] | Minimal Inhibitory Concentration, MIC [2]
C[C@H](N)C(=O)N[C@@H](Cc1cccc(O)c1)C(=O)N(C)[C@@H](C)[C@H](NC(=O)[C@H](C)NC(=O)N[C@@H](Cc1c[nH]c2ccccc12)C(=O)O)C(=O)N/C=C1/C[C@@H](O)[C@H](n2ccc(=O)[nH]c2=O)O1 [Pacidamycin-1, pacidamycin-1, reference compound] | 1 µg/mL | 4 µg/mL | > 250 µg/mL | > 250 µg/mL | 64 µg/mL | > 250 µg/mL | > 250 µg/mL | > 250 µg/mL
C[C@H](NC(=O)N[C@@H](Cc1c[nH]c2ccccc12)C(=O)O)C(=O)N[C@H](C(=O)N/C=C1/C[C@@H](O)[C@H](n2ccc(=O)[nH]c2=O)O1)[C@H](C)N(C)C(=O)[C@@H](N)Cc1cccc(O)c1 [Pacidamycin-4, pacidamycin-4, reference compound] | 2 µg/mL | 16 µg/mL | > 250 µg/mL | 64 µg/mL | 64 µg/mL | > 250 µg/mL | > 250 µg/mL | –
C[C@H](N)C(=O)N(C)[C@@H](C)[C@H](NC(=O)[C@H](C)NC(=O)N[C@@H](Cc1c[nH]c2ccccc12)C(=O)O)C(=O)N/C=C1/C[C@@H](O)[C@H](n2ccc(=O)[nH]c2=O)O1 [Pacidamycin-D, pacidamycin-D] | 4 µg/mL | 16 µg/mL | > 256 µg/mL | – | – | – | – | –
pacidamycin-4N | 4 µg/mL | 64 µg/mL | > 256 µg/mL | – | – | – | – | –
pacidamycin-5N | 64 µg/mL | > 500 µg/mL | > 500 µg/mL | > 500 µg/mL | > 500 µg/mL | > 500 µg/mL | > 500 µg/mL | > 500 µg/mL
pacidamycin-5T | 125 µg/mL | > 500 µg/mL | > 500 µg/mL | > 500 µg/mL | > 500 µg/mL | > 500 µg/mL | > 500 µg/mL | > 500 µg/mL
